Assay results from patent US12016843B2, “Compositions and methods for the treatment of amyotrophic lateral sclerosis, parkinson's disease, parkinson's disease with dementia, dementia with lewy bodies, and multiple system atrophy” (priority 2019, dated 2024).

How the values were obtained:
[1] = tested on: SOD1 G93A high copy transgenic mice; test: Lifespan (survival to humane end of life) in SOD1 G93A mouse model of ALS; format: in vivo; settings: vs vehicle control
Procedure: (§1) Study Design. Three experimental groups of n=20 (10 male, 10 female) SOD1 G93A high copy transgenic mice were dosed daily via intraperitoneal administration of vehicle control; (R)-2-amino-N—((S)-1-(((S)-5-amino-1-(3-benzyl-1,2,4-oxadiazol-5-yl)pentyl)amino)-3-(4-hydroxy-2,6-dimethylphenyl)-1-oxopropan-2-yl)-5-guanidinopentanamide (as its tris-HCl salt-(Ia)) at 0.5 mg/kg; or (R)-2-amino-N—((S)-1-(((S)-5-amino-1-(3-benzyl-1,2,4-oxadiazol-5-yl)pentyl)amino)-3-(4-hydroxy-2,6-dimethylphenyl)-1-oxopropan-2-yl)-5-guanidinopentanamide (as its tris-HCl salt—(Ia)) at 5.0 mg/kg. Animals were dosed beginning at 8 weeks of age and dosing was continued until humane end of life (defined by the inability of animal to right itself from either side within 30 seconds when placed on its side). Experimental endpoints and in-life collections and observations were as follows: • 1. Bodyweight measurement. Daily recording of weight. • 2. Neurological scoring. Weekly NeuroScore, a qualitative assessment of neurological disease progression based upon a five-point grading system. […] The average force in grams of the 3 forepaw and 3 all-paws trials are analyzed with and without normalization to body weight. • 4. […]

[2] = tested on: C57BL/6 mice injected with A53T mutant alpha-synuclein viral particles; test: Dopaminergic neuron loss in substantia nigra pars compacta induced by AAV9 human A53T alpha-synuclein (TH positive neuron counts); format: in vivo, mouse; settings: 0.5 mg/kg or 5.0 mg/kg daily ip for 5 weeks, vs group A (A53T AAV, no drug)
Procedure: Dopaminergic neuron loss in the substantia nigra pars compacta (SNc) was induced in wildtype C57BL/6 mice using AAV9 mediated viral delivery of human alpha-synuclein harboring the pathogenic A53T mutation. 4×10^10 viral particles per SNc were injected bilaterally via stereotactic surgery. Animals were nine weeks of age when viral transduction was performed. Animals were treated daily with intraperitoneal administration of (Ia) beginning 24 hours before viral transduction and continued for 5 weeks. Experimental groups were as follows: • 1. Group A—AAV A53T injected, vehicle treatment (n=7) • 2. Group B1—AAV A53T injected, (Ia) at 0.5 mg/kg treatment (n=8) • 3. Group B2—AAV A53T injected, (Ia) at 5.0 mg/kg treatment (n=8) • 4. Group C1—Sham AAV9 injected, (Ia) at 0.5 mg/kg treatment (n=6) • 5. Group C2—Sham AAV9 injected, (Ia) at 5.0 mg/kg treatment (n=7)
Five weeks following viral transduction, animals were sacrificed and brains were removed and processed for immunohistochemistry and cell counts (i.e., number of TH positive neurons) in the substantia nigra pars compacta were performed via automated stereology. Serial sections were cut and stained with tyrosine hydroxylase (TH) to enumerate the number of dopaminergic neurons. Results are illustrated in FIGS. 6A and 6B; ** p<0.01 vs groups; *** p<0.001 vs group A; ^OO p<0.001 vs group C1 and C2.

[3] = tested on: SOD1 G93A high copy transgenic mice; test: Neurological scoring (NeuroScore) in SOD1 G93A mouse model of ALS; format: in vivo; settings: vs vehicle
Procedure: as §1

[4] = tested on: SOD1 G93A high copy transgenic mice; test: Forelimb grip strength test in SOD1 G93A mouse model of ALS; format: in vivo; settings: 10 weeks on drug; for grip strength Mean Diff. (Dunnett's multiple comparisons test, Vehicle vs. 0.5 mg/kg): 0.5 mg/kg daily ip; for grip strength Mean Diff. (Dunnett's multiple comparisons test, Vehicle vs. 5.0 mg/kg): 5.0 mg/kg daily ip
Procedure: Study Design. Three experimental groups of n=20 (10 male, 10 female) SOD1 G93A high copy transgenic mice were dosed daily via intraperitoneal administration of vehicle control; (R)-2-amino-N—((S)-1-(((S)-5-amino-1-(3-benzyl-1,2,4-oxadiazol-5-yl)pentyl)amino)-3-(4-hydroxy-2,6-dimethylphenyl)-1-oxopropan-2-yl)-5-guanidinopentanamide (as its tris-HCl salt-(Ia)) at 0.5 mg/kg; or (R)-2-amino-N—((S)-1-(((S)-5-amino-1-(3-benzyl-1,2,4-oxadiazol-5-yl)pentyl)amino)-3-(4-hydroxy-2,6-dimethylphenyl)-1-oxopropan-2-yl)-5-guanidinopentanamide (as its tris-HCl salt—(Ia)) at 5.0 mg/kg. Animals were dosed beginning at 8 weeks of age and dosing was continued until humane end of life (defined by the inability of animal to right itself from either side within 30 seconds when placed on its side). Experimental endpoints and in-life collections and observations were as follows: • 1. Bodyweight measurement. Daily recording of weight. • 2. Neurological scoring. Weekly NeuroScore, a qualitative assessment of neurological disease progression based upon a five-point grading system. Scoring is defined as follows: • Score 0: Full extension of hind legs away from the lateral midline when the mouse is suspended by its tail, and the mouse can hold this extension for 2 seconds, being suspended 3 times consecutively. • Score 1: Collapse or partial collapse of the leg extension toward the lateral midline or trembling of hind legs during the tail suspension. • Score 2: Toes curl under at least twice during walking of 12 inches, or any part of the foot is dragging along the cage bottom or table. • Score 3: Rigid paralysis or minimal joint movement, the foot is not being used for forward motion. • Score 4: The mouse cannot right itself within 30 sec from either side. • 3. Grip strength test. Weekly forelimb grip strength, performed as follows: • a. Subjects are weighed and acclimated to the testing room for at least 60 min. • b. Equipment: Bioseb grip strength meter equipped with a grid for grasping that is suited for mice. • c. Mice are lowered towards the grid by their tails to allow for visual placing and for the mouse to grip the grid with their forepaws. • d. Subjects are firmly pulled horizontally away from the grid (parallel to the bench) for 3 consecutive trials with a brief (approximately 30 sec) rest period on the bench between trials. • e. The average force in grams of the 3 forepaw and 3 all-paws trials are analyzed with and without normalization to body weight. • 4. Retro-orbital blood collection. Bi-weekly retroorbital eye bleeds to determine drug exposure levels as well as levels of neurofilament light chain, a biomarker of axonal damage shown to correlate with ALS disease progression in human patients. Briefly, mice are sedated with isoflurane (5% induction, 2% maintenance) in O2. […]
Systemic administration of (R)-2-amino-N—((S)-1-(((S)-5-amino-1-(3-benzyl-1,2,4-oxadiazol-5-yl)pentypamino)-3-(4-hydroxy-2,6-dimethylphenyl)-1-oxopropan-2-yl)-5-guanidinopentanamide attenuates decline in muscle strength in ALS mouse model. As shown in FIG. 2A and Table 1A, systemic administration of (R)-2-amino-N—((S)-1-(((S)-5-amino-1-(3-benzyl-1,2,4-oxadiazol-5-yl)pentyl)amino)-3-(4-hydroxy-2,6-dimethylphenyl)-1-oxopropan-2-yl)-5-guanidinopentanamide (as its tris-HCl salt—(Ia)) attenuates the loss of grip strength in male SOD1 G93A transgenic mice. Grip strength values were determined at baseline (week 8) and through end of life for each animal. […]

[5] = female SOD1 G93A mice, daily intraperitoneal

Cc1cc(O)cc(C)c1C[C@H](NC(=O)[C@H](N)CCCNC(=N)N)C(=O)N[C@@H](CCCCN)c1nc(Cc2ccccc2)no1.Cl.Cl.Cl [Compound Ia, (R)-2-amino-N—((S)-1-(((S)-5-amino-1-(3-benzyl-1,2,4-oxadiazol-5-yl)pentyl)amino)-3-(4-hydroxy-2,6-dimethylphenyl)-1-oxopropan-2-yl)-5-guanidinopentanamide·3HCl]
lifespan [1, 5]: no effects
lifespan ([1]; male SOD1 G93A mice, 5.0 mg/kg daily intraperitoneal): significantly increased
mutant alpha-synuclein-induced loss of dopaminergic neurons in the substantia nigra (number of TH positive neurons) [2]: significantly attenuated
progression of neurological symptom onset (five-point neurological score) [3, 5]: no effects
progression of neurological symptom onset (five-point neurological score) ([3]; male SOD1 G93A mice, 5.0 mg/kg daily intraperitoneal from 8 weeks of age, two-way ANOVA): delayed the progression of neurological symptom onset
grip strength Mean Diff. (Dunnett's multiple comparisons test, Vehicle vs. 0.5 mg/kg) ([4]; female SOD1 G93A mice): −6.081
grip strength Mean Diff. (Dunnett's multiple comparisons test, Vehicle vs. 5.0 mg/kg) ([4]; female SOD1 G93A mice): −7.905
grip strength Mean Diff. (Dunnett's multiple comparisons test, Vehicle vs. 0.5 mg/kg) ([4]; male SOD1 G93A mice): −0.7940
grip strength Mean Diff. (Dunnett's multiple comparisons test, Vehicle vs. 5.0 mg/kg) ([4]; male SOD1 G93A mice): −11.90
loss of grip strength ([4]; male SOD1 G93A mice, 5.0 mg/kg, p=0.08): trend in protection from loss of grip strength
